Read-outs that look alike come from different tables or passages of the source.
Assay: in vivo
Type: in vivo, Sprague–Dawley rats
Details: for Detection in rat plasma after D7 administration: LC-MS/MS, sampling up to 24 h; for AUC / Cmax / MRT / Tmax / half-life / AUC(0-t) / CL/F / Vd/F: male, Sprague-Dawley, rat, in vivo; for Vd/F: read-out: Vz/F
Procedure: Male Sprague–Dawley rats (∼250 g) purchased from Sino-British Sippr/BK Lab Animal, Ltd. (Shanghai, China) were housed in air-conditioned animal quarters with alternating 12 h light/dark cycles at a room temperature of 22°C±2°C and a relative humidity of 50%±10%. Commercial rat chow and water were given ad libitum. The animal studies were approved by the Review Committee of Animal Care and Use at Longhua Hospital. The rats were fasted overnight (∼12 h) and had free access to water throughout the experimental period. Five rats were given a single oral dose of D7 at 4 mL/kg, which was designed based on the clinical dosage for human. Blood samples (∼150 µL) were collected via a jugular vein catheter from non-restrained, non-sedated animals into heparinized tubes before and at 0.083, 0.25, 0.5, 1, 2, 3, 4, 6, 8, 10, and 24 h after administration. After centrifugation at 4000×g for 10 min at 4°C, duplicates of 25 µL of the plasma samples were obtained and were immediately stored at −80°C until analysis. After the experiments, the rats were sacrificed with ether anesthesia.
For protein precipitation, 75 µL of MeOH were added to 25 µL of plasma samples. After vortexing for 2 min and centrifugation for 5 min at 13000×g at 4°C, 80 µL aliquots of the supernatant liquid were transferred into autosampler vials for LC-MS/MS analysis.
The LC-MS/MS system consisted of an Agilent HPLC 1200 series system and a CTC autosampler coupled with an API 4000 triple-quadrupole mass spectrometer equipped with a TurboIonSpray ion source. The LC-MS/MS system was controlled using the Analyst 1.4.2 software, which also acquired and processed the data.
LC separation was performed on a 5 µm Agel Luna C18 (50 mm×2.1 mm, i.d.) at room temperature with a 2 µm filter used before the analytical column. The LC mobile phase was H2O containing 0.1% formic acid (A) and MeOH (B) at a flow rate of 0.30 mL/min. A gradient elution program was used as following: 0→2.5 min, B% 60→90; 2.5→2.6 min, B% 90→60; and 2.6→4 min, B% 60→60. The injection volume was 10 µL and the temperature of the autosampler was set at 4°C to keep the samples stable during the analysis.
The tuning solutions (10 µg/mL) of the individual analytes were prepared by diluting the corresponding primary stock solutions with 50% MeOH. The tuning solutions were delivered at 5.0 µL/min using a syringe pump and combined through a PEEK tee-connector with the mobile phase delivered at 0.3 mL/min with the LC pump. The instrumental parameters of the MS spectrometers in positive ion ESI mode were optimized to achieve maximum ionization of the analyte molecules and the generation of characteristic fragment ions. […] The scan time for each pair was set to 50 ms. The operating parameters of the mass spectrometer included compound-dependent and source-dependent considerations. The optimized source-dependent parameters consisted of the flow rates of curtain gas, gas 1, gas 2, collision gas (CAD), capillary temperature (TEM), and ion spray voltage. The compound-dependent parameters for the test compounds included the declustering potential (DP), entrance potential (EP), collision energy (CE), and collision cell exit potential (CXP).
Standard curves, intra-batch accuracy, and precision for the quantification of the 15 compounds in the rat plasma samples were constructed similarly. The accuracy was measured as the difference between the nominal value and the measured value, expressed as a percentage of the nominal value. Precision was expressed as the coefficient of variation (CV), i.e., the standard deviation divided by the mean multiplied by 100.
The plasma concentration–time data for D7 were analyzed with the WinNonlin 5.2.1 software (Pharsight, Mountain View, CA, USA) using a non-compartmental model. The peak plasma concentration (C max) and the corresponding time (T max) were directly obtained from the concentration data.

[1] = SD rats, single oral D7 4 mL/kg
[2] = SD rats, single oral D7 4 mL/kg, plasma
[3] = SD rats, single oral D7 4 mL/kg, plasma, non-compartmental, read-out: T1/2 (converted)
[4] = SD rats, single oral D7 4 mL/kg, plasma, read-out: AUC0–24 h
[5] = SD rats, single oral D7 4 mL/kg, read-out: CL/F (converted)

Row | Structure (SMILES) | Detection in rat plasma after D7 administration [1] | AUMCall [2] [h·h·ng/mL] | AUMClast [2] [h·h·ng/mL] | AUC [2] [ng·h/mL] | Cmax [2] [ng/mL] | MRT [2] [h] | Tmax [2] [h] | half-life [3] [min] | AUC(0-t) [4] [ng·h/mL] | CL/F [5] [mL/min/kg] | Vd/F [1] [L/kg] | T1/2 (SD rats, single oral D7 4 mL/kg, plasma, non-compartmental) [h] | half-life (po, SD rats, single oral D7 4 mL/kg, plasma, non-compartmental, read-out: T1/2 (converted)) [min] | AUC(0-t) (SD rats, single oral D7 4 mL/kg, plasma, read-out: AUClast) [ng·h/mL] | CL/F (po) [mL/min/kg] | half-life (po, T1/2) [min]
1 | CCN1CC2(COC)C(O)CC(OC)C34C5CC6(O)C(OC)C(O)C(O)(C5C6OC(=O)c5ccccc5)C(C(OC)C23)C14 (stereo not shown) [Benzoylaconitine, benzoylaconine] | not detected |  |  |  |  |  |  |  |  |  |  |  |  |  |  | 
2 | COc1c2ccoc2cc2oc(=O)ccc12 [Bergapten, bergapten] | measureable | 1270±958 | 924±716 | 158 ± 77.9 | 20.5 ± 7.22 | 5.65 ± 2.16 | 1 | 248 ± 42 | 143 ± 73.2 | 8.07 | 2.93 ± 1.57 |  |  |  |  | 
3 | O=c1ccc2ccc3occc3c2o1 [Isopsoralen, isopsoralen] | measureable | 168803±119110 | 150025±99963 | 21000 ± 12100 | 2240 ± 824 | 7.13 ± 0.66 | 6 | 212 ± 61.8 | 20400 ± 11500 | 1.1 | 0.308 ± 0.181 |  |  |  |  | 
4 | O=c1ccc2cc3ccoc3cc2o1 [Psoralen, psoralen] |  | 74305±51503 | 69918±49475 | 10200 ± 6000 | 929 ± 431 | 6.71 ± 0.79 | 6 | 191 ± 14.4 | 9980 ± 5960 | 1.39 | 0.384 ± 0.227 |  |  |  |  | 
5 | CC(C)=CCc1cc2c(cc1O)oc(=O)c1c3ccc(O)cc3oc21 [Psoralidin, psoralidin] | measureable | 2240±462 | 329±44 | 64.5 ± 8.46 | 2.57 ± 0.53 | 10.3 ± 0.39 | 0.5 |  |  | 2.88 | 5.87 ± 0.395 | 23.7 ± 1.7 | ~1440 | 31.9 ± 3.32 |  | 
6 | COc1c2occc2cc2ccc(=O)oc12 [Xanthotoxin, xanthotoxin] |  | 1445±719 | 667±270 | 209 ± 89.5 | 31.7 ± 9.55 | 4.06 ± 0.41 | 1 |  | 162 ± 64.7 |  | 3.69 ± 1.52 |  |  |  | 9.6 | 274 ± 42.6
7 | CCN1C[C@]2(COC)[C@H](O)C[C@H](OC)[C@@]34[C@@H]5C[C@@]6(O)[C@H](OC(=O)c7ccccc7)[C@@H]5[C@@](OC(C)=O)([C@@H]([C@H](OC)[C@H]23)[C@@H]14)[C@@H](O)[C@@H]6OC [aconitine] | not detected |  |  |  |  |  |  |  |  |  |  |  |  |  |  | 
8 | COC[C@@]12CC[C@H](OC)[C@]34C(C([C@H](OC)[C@H]13)[C@]1(OC(C)=O)[C@H]3[C@@H](OC(=O)c5ccccc5)[C@](O)(C[C@H]34)[C@@H](OC)[C@@H]1O)N(C)C2 [hypaconitine] | not detected |  |  |  |  |  |  |  |  |  |  |  |  |  |  | 
9 | COCC12CN(C)C3C4C(OC)C1C3(C(OC)CC2O)C1CC2(O)C(OC)C(O)C4(OC(C)=O)C1C2OC(=O)c1ccccc1 (stereo not shown) [mesaconitine] | not detected |  |  |  |  |  |  |  |  |  |  |  |  |  |  | 

Source: paper PMC3585395, “Material Basis of Chinese Herbal Formulas Explored by Combining Pharmacokinetics with Network Pharmacology” (PLoS ONE, 2013)
